Values joined by “and” are separate entries in the source; they are usually repeats but may differ in a detail not shown here. Identical values can stand only once.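 All cell lines were grown in 96-well plates and treated with compound for 48 hours. GI50: concentration for 50% inhibition of growth. Definition used: TGI = concentration required for complete inhibition of growth.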 Where only a bound is given, the exact number is not on record here.

Test systems include IGROV1 ovarian; SK-MEL-28 melanoma; SK-OV-3 ovarian; A549 NSCLC; SR leukemia; NCI-H522 lung; OVCAR-8 ovarian; COLO 205 colon; HCT-116 colon; NCI-H23 lung.
Holding throughout (assay): NCI tumour cell line growth inhibition, 48 h

On to `CC(=O)/C=C/C1=C(c2cccs2)c2ccccc2CC1`, for which the GI50 in the assay with IGROV1 ovarian was 19.8 µM; with SK-MEL-28 melanoma, 22.4 µM; in the assay with SK-OV-3 ovarian, 42 µM; with A549 NSCLC, 37.3 µM; with SR leukemia, 23.6 µM; in the assay on NCI-H522 lung, 25.1 µM. The GI50 was 38.9 µM in the assay with OVCAR-8 ovarian, 23.1 µM with COLO 205 colon, 37.6 µM in the assay with HCT-116 colon and 34.3 µM in the assay on NCI-H23 lung. Also, the TGI is 49.7 µM in the assay with IGROV1 ovarian; 52.2 µM in the assay with SK-MEL-28 melanoma; greater than 100 µM in the assay with SK-OV-3 ovarian; greater than 100 µM in the assay with A549 NSCLC; 51.8 µM with SR leukemia; 66.8 µM in the assay with NCI-H522 lung. In addition, the TGI in the assay with OVCAR-8 ovarian was greater than 100 µM; in the assay with COLO 205 colon, 49 µM; in the assay on HCT-116 colon it was greater than 100 µM; in the assay on NCI-H23 lung it was greater than 100 µM.
As for `COc1ccc(/C=C(/C)[N+](=O)[O-])cc1`, the TGI with IGROV1 ovarian stood at 6.2 µM; in the assay with SK-MEL-28 melanoma it was 8.14 µM; in the assay on SK-OV-3 ovarian, 17.9 µM; with A549 NSCLC, 18.2 µM; with SR leukemia, 3.56 µM; in the assay with NCI-H522 lung it was 1.81 µM. The TGI stood at 5.75 µM in the assay on OVCAR-8 ovarian, 4.3 µM with COLO 205 colon, 3.14 µM with HCT-116 colon and 4.35 µM in the assay on NCI-H23 lung.
With `COc1cc(NCC2COc3c(ccc(OC)c3OC)C2=O)c([N+](=O)[O-])cc1OC` (stereo not given), the TGI in the assay with IGROV1 ovarian, in the assay on SK-MEL-28 melanoma, in the assay with SK-OV-3 ovarian, in the assay with A549 NSCLC, in the assay on SR leukemia and in the assay with NCI-H522 lung was greater than 100 µM each time. In addition, the TGI with OVCAR-8 ovarian, in the assay on COLO 205 colon, with HCT-116 colon and in the assay on NCI-H23 lung was greater than 100 µM throughout.
Consider `CS(=O)(=O)CCn1c(=O)c(Oc2ccc(F)cc2F)cc2cnc(NC3CCOCC3)nc21`, for which the GI50 in the assay on IGROV1 ovarian, in the assay with SK-MEL-28 melanoma, in the assay with SK-OV-3 ovarian, in the assay on A549 NSCLC, in the assay with SR leukemia and in the assay on NCI-H522 lung was greater than 25 µM each time. The GI50 with OVCAR-8 ovarian, in the assay on COLO 205 colon, with HCT-116 colon and with NCI-H23 lung was greater than 25 µM each time. For the same compound, the TGI in the assay on IGROV1 ovarian, in the assay on SK-MEL-28 melanoma, in the assay on SK-OV-3 ovarian, with A549 NSCLC, with SR leukemia and with NCI-H522 lung was greater than 25 µM in each case. The TGI with OVCAR-8 ovarian, with COLO 205 colon, in the assay on HCT-116 colon and in the assay on NCI-H23 lung was greater than 25 µM each time.
For the compound `O=C(Nc1ccccc1O)c1ccc(CNC(=O)c2sccc2Nc2ccnc(C(F)(F)F)c2)cc1`, the GI50 with IGROV1 ovarian is 14 µM; in the assay with SK-MEL-28 melanoma, 5.57 µM; with SK-OV-3 ovarian, 10.6 µM; in the assay with A549 NSCLC it was 8.68 µM; in the assay on SR leukemia it was 4.19 µM; in the assay with NCI-H522 lung, 5.06 µM. The GI50 is 3.44 µM in the assay with OVCAR-8 ovarian, 5.38 µM in the assay with COLO 205 colon, 4.61 µM in the assay on HCT-116 colon and 5.73 µM in the assay with NCI-H23 lung. Besides, the TGI with IGROV1 ovarian amounted to 32.7 µM; in the assay with SK-MEL-28 melanoma it was 46.3 µM; with SK-OV-3 ovarian it was 37.3 µM; in the assay on A549 NSCLC, 28.2 µM; in the assay with SR leukemia, 61.4 µM; with NCI-H522 lung, 27.7 µM. Moreover, the TGI with OVCAR-8 ovarian is 41.2 µM; in the assay with COLO 205 colon it was 19.2 µM; in the assay on HCT-116 colon, 15.2 µM; in the assay with NCI-H23 lung, 41.2 µM.
Regarding `C[C@@H](Oc1ccc2[nH]nc(/C=C/c3cnn(CCO)c3)c2c1)c1c(Cl)cncc1Cl`, the GI50 is 0.135 µM with IGROV1 ovarian; 1.72 µM with SK-MEL-28 melanoma; 1.29 µM with SK-OV-3 ovarian; 0.0938 µM in the assay on A549 NSCLC; 0.0208 µM with SR leukemia; 0.572 µM in the assay on NCI-H522 lung. Besides, the GI50 is 0.329 µM in the assay on OVCAR-8 ovarian, 0.107 µM in the assay with COLO 205 colon, 0.082 µM with HCT-116 colon and 0.0796 µM in the assay on NCI-H23 lung. In addition, the TGI in the assay on IGROV1 ovarian stood at 5.04 µM; in the assay on SK-MEL-28 melanoma it was 4.85 µM; with SK-OV-3 ovarian it was 6.15 µM; in the assay with A549 NSCLC, 5.79 µM; in the assay on SR leukemia it was 1.1 µM; in the assay on NCI-H522 lung it was 2.49 µM. Moreover, the TGI in the assay on OVCAR-8 ovarian is greater than 32.1 µM; in the assay with COLO 205 colon, 0.306 µM; in the assay with HCT-116 colon, greater than 100 µM; with NCI-H23 lung it was 2.18 µM.
For the compound `CC(=O)OC1CCC2(C)C(=CCC3C4CCC5(OC6CC(C)CN(C(C)=O)C6C5C)C(C)=C4C(=O)C32)C1` (stereo not given), the TGI in the assay with IGROV1 ovarian is 29.1 µM; in the assay with SK-MEL-28 melanoma it was greater than 100 µM; in the assay with SK-OV-3 ovarian it was 66.8 µM; in the assay on A549 NSCLC it was 47.7 µM; in the assay with SR leukemia, 40.8 µM; with NCI-H522 lung, 29.4 µM. For the same compound, the TGI with OVCAR-8 ovarian worked out at 46.1 µM; in the assay on COLO 205 colon it was 32.4 µM; in the assay on HCT-116 colon it was 36.7 µM; with NCI-H23 lung it was 29.6 µM.
As to `CCCCCCCCCCCCCC(=O)C(C)N` (stereo not given), the GI50 was 3.68 µM in the assay on IGROV1 ovarian; 16.8 µM with SK-MEL-28 melanoma; 9.36 µM with SK-OV-3 ovarian; 8.94 µM in the assay on A549 NSCLC; 2.68 µM with SR leukemia; 12.7 µM in the assay with NCI-H522 lung. Also, the GI50 in the assay on OVCAR-8 ovarian was 18.4 µM; in the assay with COLO 205 colon it was 1.95 µM; with HCT-116 colon it was 5.27 µM; with NCI-H23 lung it was 6.94 µM. The TGI turned out to be 14 µM with IGROV1 ovarian; 32.5 µM in the assay on SK-MEL-28 melanoma; 22 µM with SK-OV-3 ovarian; 22.5 µM in the assay on A549 NSCLC; 8.47 µM in the assay on SR leukemia; 27.5 µM in the assay on NCI-H522 lung. The TGI in the assay on OVCAR-8 ovarian amounted to 36.1 µM; in the assay on COLO 205 colon it was 3.87 µM; in the assay on HCT-116 colon, 18.7 µM; in the assay on NCI-H23 lung, 21.9 µM.
On to `O=C1C(=O)c2ccccc2C(O)=C1CC=C(Cl)Cl`, for which the GI50 with IGROV1 ovarian is 4.93 µM and 8.27 µM; with SK-MEL-28 melanoma, 9.5 µM and 16.4 µM; in the assay on SK-OV-3 ovarian, 15.1 µM and 16.1 µM; in the assay on A549 NSCLC, 5.63 µM; in the assay with SR leukemia, 0.924 µM and 4.89 µM; in the assay on NCI-H522 lung it was 8.02 µM. For the same compound, the GI50 in the assay with OVCAR-8 ovarian was 6.49 µM and 4.81 µM; with COLO 205 colon it was 11.4 µM and 11.2 µM; in the assay with HCT-116 colon, 1.15 µM and 2.96 µM; in the assay with NCI-H23 lung, 11.6 µM and 12.7 µM. In addition, the TGI is 119 µM and > 100 µM in the assay with IGROV1 ovarian; 60.4 µM and 161 µM and > 100 µM with SK-MEL-28 melanoma; 50.2 µM and 149 µM and > 100 µM in the assay on SK-OV-3 ovarian; > 78.7 µM and 129 µM and > 100 µM in the assay with A549 NSCLC; > 91.1 µM and 156 µM and > 100 µM with SR leukemia; 40.5 µM and 117 µM and 89.8 µM in the assay on NCI-H522 lung. For the same compound, the TGI with OVCAR-8 ovarian is 206 µM and > 100 µM; with COLO 205 colon, 28.8 µM and > 85.5 µM and > 100 µM; with HCT-116 colon, 29.7 µM and 44 µM and > 100 µM; with NCI-H23 lung it was 51.3 µM and 154 µM and 99.1 µM.
Consider `COc1cc(NCc2ccccc2O)c2ncccc2c1`, for which the GI50 was 13.7 µM with IGROV1 ovarian; 21.3 µM in the assay on SK-MEL-28 melanoma; 20.2 µM in the assay on SK-OV-3 ovarian; 49.1 µM with A549 NSCLC; 5.91 µM in the assay with SR leukemia; 10.1 µM with NCI-H522 lung. For the same compound, the GI50 with OVCAR-8 ovarian is 25.4 µM; in the assay on COLO 205 colon, 19.7 µM; in the assay with HCT-116 colon, 16.6 µM; in the assay with NCI-H23 lung, 22.5 µM. Further, the TGI was 56.2 µM with IGROV1 ovarian; 80.2 µM in the assay with SK-MEL-28 melanoma; 50 µM with SK-OV-3 ovarian; greater than 100 µM with A549 NSCLC; 58.3 µM in the assay with SR leukemia; 43 µM in the assay with NCI-H522 lung. Further, the TGI in the assay on OVCAR-8 ovarian is greater than 100 µM; with COLO 205 colon, 77.2 µM; with HCT-116 colon, 63.4 µM; in the assay on NCI-H23 lung, 97.3 µM.

For the origin of these results see PubChem BioAssay (NCI).
